Results published in patent US9079821B2, “Quinone based nitric oxide donating compounds” (NICOX S.A., priority 2011, dated 2015).
Read-outs that look alike come from different tables or passages of the source.

Tests used:
[1] = system: rat L-NAME-induced hypertension; test: Rat L-NAME-induced hypertension, systolic blood pressure after single oral dose; format: in vivo; settings: for Delta vs basal (mmHg): Comp. (6) 100 mg/kg oral, L-NAME 50 mg/kg i.p.
Protocol: To assess the in vivo NO-dependent activity, Compound (6) was evaluated for systolic blood pressure (SBP) reduction efficacy in a rat model of NO-deprivation induced by L-NAME and compared with 5-ISMN.
Fasted male SD rats (250-300 g, n=3-5 per group), obtained from Harlan Italy (Correzzana, Milan, Italy) were orally treated with tested compounds or vehicle (DMSO:Methocel 1% 2/98 v/v) in a total volume of 4 ml/kg by gavage. At each time point (1, 3, 6 and 24 h) animals were deeply anesthetized with Zoletil® 100 (3 mg/kg), given intramuscularly. Thereafter, a pressure catheter (Samba Sensors, Harvard Apparatus, UK) was introduced into the common carotid artery for central blood pressure measurement. Pressure transducer was connected to a personal computer, in order to allow real time monitor of the pressure tracing. After 10 minutes of basal recording, L-NAME (50 mg/kg) was administered intraperitoneally and the effect on SBP monitored. When the SBP stabilized (5 minutes without variations) the recording was stopped. To further confirm that functional activity was NO-dependent, at each time point blood ^15N-nitrite levels were measured following the procedure described in Example 12.

[2] = system: isolated aortas from rats; test: Ex vivo tolerance evaluation (vascular response of isolated aortas from treated rats); format: in vivo, rat; settings: for EC50 at 100 mg/kg: Rattus norvegicus, vascular response to Compound (6), 3 h after last administration
Protocol: (§1) Thoracic aortas from male New Zealand rabbits or male Sprague Dawley (SD) were used. The aortas were placed immediately in Krebs-HEPES buffer (pH 7.4; composition mM: NaCl 130.0, KCl 3.7, NaHCO3 14.9, KH2PO4 1.2, MgSO4.7H2O 1.2, Glucose 11.0, HEPES 10.0, CaCl2.2H2O 1.6). Connective tissue was removed and aortas were cut into ring segments (4-5 mm in length). Each ring was placed in a 5 mL tissue bath filled with Krebs-HEPES buffer (37° C.) aerated with 95% O2 and 5% CO2 and was attached to a force transducer (Grass FT03), connected to a BIOPAC MP150 System for measurement of the isometric tension. Preparations were allowed to equilibrate for 1 h at a resting tension of 2 g for rabbit aortas and 1 g for rat aortas with changes of the buffer every 15 min. Then the rings were stimulated by exposure to 90 mM KCl (3 times) with intervening washings.
(§2) Rat aorta. After equilibration, rat aortas were precontracted with KCl (90 mM) and, when the contraction was stable, a cumulative concentration-response curve to acetylcholine (ACh, 0.01-100 μM) was added. After washout, the rings were precontracted again with KCl (90 mM). When a steady-state level of contraction was obtained, a cumulative concentration-response curve to the tested compounds (0.01-100 μM) was obtained.
(§3) Data analysis. Results are given as mean±SEM. Vascular responses are expressed as percentage relaxation and plotted vs concentration. The sensitivity of isolated aorta to different vasodilators is expressed as the concentration that elicited 50% of the maximal responses (EC50). Responses are quantified in terms of EC50 and Emax (maximal vasodilating effect) values, obtained from the concentration-response curve by nonlinear curve fitting, using GraphPad software.
Tolerance to nitrate was further investigated assessing the vascular effects of Compound (6) following repeated treatment compared with 5-ISMN. The vascular response to the compound itself was assessed on isolated aortas from rats orally treated for 5 days with Compound (6) (100 mg/kg). The vascular response was performed as described in Example 6.
Vascular responses were performed 1 h (ISMN) or 3 h (Compound (6)) after the last administration, the concentrations of tested compound that elicited the 50% of the maximal responses (EC50) are shown in Table 4.

mdx mice = test: Mouse model of Duchenne Muscle Distrophy (whole body tension in mdx mice); format: in vivo; settings: for WBT5: average of top 5 FPTs divided by body weight; for WBT10: average of top 10 FPTs divided by body weight
Protocol: The effects of the compound (6) on muscle function were assessed in mdx mice, which are genetically and biochemically homologous to human DMD. Animals of 4 weeks of age were treated for 3 months with the compound (6) at two different doses (30 and 100 mg/kg), which was incorporated into the diet. Control mdx and wild-type mice were fed the same diet without any drug. To determine if treatment with the compound would ameliorate muscle function in mdx mice, we evaluated the whole body tension which is a measure of the total muscle force. Indeed, this assay, well described in the Treat-NMD standard procedures for the preclinical studies in DMD, is used to determine the ability of mice to exert tension in a pulling maneuver that is elicited by stroking the tail. It is thought to reflect the maximal acute phasic force of the mouse can achieve to escape a potentially harmful event. Briefly, each mouse was placed at the entry of a polyvinyl chloride tube that had been lined interiorly with an aluminum screen, and the tail of the mouse was connected to a tension transducer. Forward pulling movements were elicited by a standardized stroke of the tail with serrated forceps and the corresponding forward pulling tensions (FPTs) were recorded using a Biopac recording system. Between 15 and 20 FPTs were generally recorded during each session. The whole body tension 5 (WBT5) and WBT10 were obtained by dividing the average of the top 5 or top 10 FPTs, respectively, by the body weight.
Table.1 Whole Body Tension (WBT) measured in wild-type and mdx control mice and in mdx mice treated with two different doses of NCX 1443 (30 and 100 mg/kg) incorporated in the diet. Data are presented as mean±standard deviation. For each group, n=8-10 mice. *p<0.05 vs mdx vehicle, ^###p<0.001 vs wild-type (wt) mice, 1-way ANOVA followed by Tuckey post-hoc test.

[3] = system: methoxamine-precontracted rabbit aortic rings; test: In vitro NO-mediated vasorelaxation; format: cell-based
Protocol: The ability of compound (6) disclosed in example 1, to induce in vitro vasorelaxation, which is a functional marker of NO release, was assessed on methoxamine-precontracted rabbit aortic rings.
as §1
Rabbit aorta. […]
Data analysis. […] Vascular responses are expressed as percentage relaxation and plotted vs concentration. […] Responses are quantified in terms of EC50 and Emax (maximal vasodilating effect) values, obtained from the concentration-response curve by nonlinear curve fitting, using GraphPad software.

[4] = system: rat aorta, endothelial-dependent vasodilation (response to ACh); test: Endothelial dysfunction evaluation (vascular response to acetylcholine after treatment); format: in vivo; settings: for Emax at 100 mg/kg: Rattus norvegicus, response to ACh, read-out: % relaxation (Emax)
Protocol: as §1, §2, §3
Endothelial-dependent vasodilation (vascular response to acetylcholine, ACh) was assessed following 5-day treatment with Compound (6) (100 mg/kg) or 5-ISMN (30 mg/kg). A relaxant response to ACh indicated the presence of a functional endothelium. The vascular response was performed as described in Example 6.

[5] = 30 mg/kg/day in the diet for 3 months
[6] = 100 mg/kg/day in the diet for 3 months

COC1=C(OC)C(=O)C(CCCCCCCCCCO[N+](=O)[O-])=C(C)C1=O [Compound (6), 10-(4,5-dimethoxy-2-methyl-3,6-dioxocyclohexa-1,4-dienyl)decyl nitrate]
Delta vs basal (mmHg) ([1]; 1 hour): 53.5 ± 4.5 mmHg | Delta vs basal (mmHg) ([1]; 3 hours): 14 ± 3.8 mmHg | Delta vs basal (mmHg) ([1]; 6 hours): 38 ± 3.6 mmHg | Delta vs basal (mmHg) ([1]; 24 hours): 67.7 ± 16.8 mmHg | time over which L-NAME induced SBP increase was prevented after treatment ([1]; Compound (6) 100 mg/kg, single oral administration): 6 h | EC50 at 100 mg/kg ([2]; acute, aortas of rats given Compound (6) 100 mg/kg): 110 ± 20 nM | EC50 at 100 mg/kg ([2]; repeated (5 days oral) Compound (6) 100 mg/kg): 180 ± 20 nM | vascular response of aortas from treated animals vs vehicle arteries, in words ([2]; compound (6) 100 mg/kg oral, 5 days): showed the same sensitivity to Compound (6) as those arteries of animals treated only with vehicle | WBT5 (mdx mice; [5]): 3.6 ± 0.7^### | WBT10 (mdx mice; [5]): 3.0 ± 0.7^### | WBT5 (mdx mice; [6]): 4.1 ± 0.8^###* | WBT10 (mdx mice; [6]): 3.4 ± 0.6^###* | effect on muscle function, in words (mdx mice; 30 and 100 mg/kg in the diet for 3 months): showed a dose-response trend in improving muscle function reaching a significant effect at the dose of 100 mg/kg | relaxation at the highest concentration tested ([3]; 100 μM): 89±1% | EC50 ([3]; Oryctolagus cuniculus, methoxamine (3 μM) precontracted, functional endothelium, read-out: EC50 (concentration-dependent relaxation)): 4700 ± 200 nM | effect on endothelial-dependent vasorelaxation, in words ([4]; Compound (6) 100 mg/kg, 5-day treatment): did not modify endothelial-dependent vasorelaxation | Emax at 100 mg/kg ([4]; 120 h, repeated (5-day) Comp. (6) 100 mg/kg): 84.3 ± 7.5% | Emax at 100 mg/kg ([4]; acute, Comp. (6) 100 mg/kg): 89.6 ± 4.5%
